In patent publication US11795457B2, “Compositions and methods for treatment of Friedreich's Ataxia” (The Board of Regents of The University of Texas System, priority 2014, dated 2023):
Where two headings read alike, the source gives them in different places. Oligonucleotides are written 5' to 3', each unit as a sugar letter and its base; * is a phosphorothioate linkage, no mark a phosphodiester; rarer units and linkages stand in square brackets, end groups in braces. Plain capitals give the bases only. l = locked nucleic acid (LNA); d = 2'-deoxy (DNA)

Experiments:
[1] = Tm of siRNA duplex; type: physicochemical
[2] = test system: FXN protein; assay: FXN protein expression by western blot in FRDA patient-derived fibroblast cells; type: cell-based, human; details: GM03816 cells; for FXN protein expression, LNAs: 12.5 nM, day 4 (FIGS. 4B-E)
Protocol: (§1) Tissue culture and transfection of synthetic nucleic acids. Fibroblast cells (Coriell Institute, GM03816 and GM02513) were cultured in minimum essential medium (MEM) supplemented with 10% FBS and 1% NEAA. All cells were grown at 37° C. in 5% Co2. Lipofectamine RNAiMAX (Invitrogen) was used to transfect siRNAs or LNA following the manufacturer's recommended protocol in OptiMEM low serum medium (Invitrogen). Growth media was changed to full medium after 24 h. Transfected cells were harvested 72 h after transfection for RNA extraction and qPCR analyses, and 96 h after transfection for western blot analysis. Sequences of siRNAs and RNAs used in these studies are listed in Table S1 and Table S2, respectively.
Western blot analysis. Cell extracts were prepared using lysis buffer supplemented with 1% Protease Inhibitor Cocktail Set I (Calbiochem) as described previously (Punga & Buhler, 2010). Protein was separated on 4-20% gradient or 15% SDS-PAGE TGX pre-cast gels (BioRad). After gel electrophoresis, proteins were transferred to nitrocellulose membrane (Hybond-C Extra, GE Healthcare Life Sciences) at 100 V for 45-60 min. Membranes were blocked for 30 min at room temperature with 5% milk protein in PBS+0.05% TWEEN-20 (PBST).
Blocked membranes were incubated with the primary antibodies at 4° C. in PBST and 5% milk with rocking overnight: anti-FXN at 1:300 (Abcam, ab110328), anti-tubulin at 1:6000-10000 (Sigma-Aldrich, T5201). After primary antibody incubation, membranes were washed 3 times for 5 min at room temperature with PBST then incubated for 30-45 min at room temperature with HRP-conjugated anti-mouse (Jackson Laboratories, 715-035-150) in PBST+5% milk. Membranes were washed again 3× for 15 min in PBST at room temperature, then protein bands visualized using SuperSignal West Pico Chemiluminescent Substrate (Thermo Scientific). For quantification of protein levels from Western blots of cellular fractions, films were scanned and bands quantified using ImageJ.
HDAC inhibitor and mRNA stability assay. Histone deacetylase inhibitor BML-210 (Abcam) (5 μM) was applied to FRDA fibroblast cells (GM03816) by following the procedure described in Herman et al (2006)^27. Cells were collected for qPCR and Western blot analyses as mentioned above. For mRNA stability assay, cells were transfected with siGAA or CM as above, and 5 μg/mL actinomycin D (Sigma) was added with fresh media 3 day after transfection, and cells were collected at the indicated time points for RNA extraction and qPCR analysis.

[3] = test system: frataxin protein; details: patients, daily oral administration, cited from earlier work
[4] = test system: FXN; assay: FXN expression in FRDA patient-derived cells, mRNA or protein not specified; type: cell-based, human; details: GM03816 cells, 25 nM (FIG. 3B)
Protocol: as §1

[5] = test system: interferon responsive genes; assay: qPCR of interferon responsive genes (off-target); type: cell-based, human; details: GM03816 cells, 25 nM, 3 days after transfection, compared with CM control
Protocol: as §1
Quantitative PCR. Identical volumes of RNA (representing approximately the same number of cells and ranging from 1-2 μg of RNA) were treated with 2 units of DNase I (Worthington) in DNase I buffer (10 mM Tris-HCl, pH 7.0, 10 mM NaCl, 2 mM MgCl2, 0.5 mM CaCl2)) for 15 min at room temperature to degrade any genomic DNA contamination. Afterwards, DNase I heat-inactivated at 75° C. for 10 min. Treated RNAs were reverse-transcribed using the High Capacity cDNA Reverse Transcription Kit (Applied Biosystems). Quantitative PCR (qPCR) was performed using SYBR Supermix (Biorad) with ˜50 ng of cDNA as template. Data were normalized relative to measured HPRT levels.

[6] = test system: histone H3 and H4 acetylation, FXN mRNA and protein; details: lymphoid cells or primary lymphocytes; cited from earlier work
[7] = test system: FXN mRNA; assay: FXN mRNA expression by quantitative PCR in FRDA patient-derived fibroblast cells; type: cell-based, human; details: GM03816 cells, 5 μM, averaged quadruplicate experiments (FIG. 2B)
Protocol: Tissue culture and transfection of synthetic nucleic acids. Fibroblast cells (Coriell Institute, GM03816 and GM02513) were cultured in minimum essential medium (MEM) supplemented with 10% FBS and 1% NEAA. All cells were grown at 37° C. in 5% Co2. Lipofectamine RNAiMAX (Invitrogen) was used to transfect siRNAs or LNA following the manufacturer's recommended protocol in OptiMEM low serum medium (Invitrogen). Growth media was changed to full medium after 24 h. Transfected cells were harvested 72 h after transfection for RNA extraction and qPCR analyses, and 96 h after transfection for western blot analysis. Sequences of siRNAs and RNAs used in these studies are listed in Table S1 and Table S2, respectively. Quantitative PCR. Identical volumes of RNA (representing approximately the same number of cells and ranging from 1-2 μg of RNA) were treated with 2 units of DNase I (Worthington) in DNase I buffer (10 mM Tris-HCl, pH 7.0, 10 mM NaCl, 2 mM MgCl2, 0.5 mM CaCl2)) for 15 min at room temperature to degrade any genomic DNA contamination. Afterwards, DNase I heat-inactivated at 75° C. for 10 min. Treated RNAs were reverse-transcribed using the High Capacity cDNA Reverse Transcription Kit (Applied Biosystems). Quantitative PCR (qPCR) was performed using SYBR Supermix (Biorad) with ˜50 ng of cDNA as template. Data were normalized relative to measured HPRT levels. […]

siExon3: positive control for transfection efficiency targeting exon 3 of FXN: ss GACCACCUAUGAAAGACUAdTdT (SEQ ID NO: 21), as SEQ ID NO: 22 (sense GACCACCUAUGAAAGACUANN; antisense UAGUCUUUCAUAGGUGGUCNN; dTdT overhangs; modified_base (20)..(21) n = thymidine; (20)..(21) n is a, c, g, t or u) [reference compound]
Tm for duplex [1]: 73.65 ^+C

siExon2: duplex siRNA that targets FXN exon: ss GAGUGUCUAUUUGAUGAAUdTdT (SEQ ID NO: 13), as SEQ ID NO: 14 (sense GAGUGUCUAUUUGAUGAAUNN; antisense AUUCAUCAAAUAGACACUCNN; dTdT overhangs; modified_base (20)..(21) n = thymidine; (20)..(21) n is a, c, g, t or u) [reference compound]
Tm for duplex [1]: 64.53 ^+C

PS-LNA12: LNA with PS backbone complementary to antisense RNA, AAGAAGAAGAAGAAGAAGA (SEQ ID NO: 34) (dA*dA*lG*dA*dA*lG*dA*dA*lG*dA*dA*lG*dA*dA*lG*dA*dA*lG*dA)
FXN protein expression, LNAs [2]: inert

NC(=O)c1cccnc1 [nicotinamide]
Increase of frataxin protein concentration ([3]; 3.8 g): 1.5 times | Increase of frataxin protein concentration ([3]; 7-5 g): doubling

siGAA9,10mm: anti-GAA duplex RNA with central mismatches on both strands: ss GAAGAAGAUCAAGAAGAAGdTdT (SEQ ID NO: 19), as CUUCUUCUUAGUCUUCUUCdTdT (SEQ ID NO: 20) (sense GAAGAAGAUCAAGAAGAAGNN; antisense CUUCUUCUUAGUCUUCUUCDTDT; dTdT overhangs; modified_base (20)..(21) n = thymidine; (20)..(21) n is a, c, g, t or u)
Activation of FXN expression by duplex with central mismatches ([4]; listed as siGAA 9.10 mm): activates FXN expression at a level similar to the analogous fully complementary duplex RNA | Activation of FXN expression by duplex with central mismatches ([4]; listed as siGAA9.10 mm): activated FXN expression as well as fully complementary duplexes siGAA or siAAG | Tm for duplex [1]: 54.4 ^+C

siGAA: duplex RNA: ss GAAGAAGAAGAAGAAGAAGdTdT (SEQ ID NO: 1), as CUUCUUCUUCUUCUUCUUCdTdT (SEQ ID NO: 9) (sense GAAGAAGAAGAAGAAGAAGNN; antisense CUUCUUCUUCUUCUUCUUCNN; dTdT overhangs; modified_base (20)..(21) n = thymidine; (20)..(21) n is a, c, g, t or u)
FXN protein expression (dose response profile) ([2]; day 4 (FIG. 1F)): upregulation of FXN protein expression | mRNA expression of interferon responsive genes [5]: does not induce expression of interferon responsive genes | Tm for duplex [1]: 65.64 ^+C

scramble: duplex RNA in which the sequences of siGAA and siAAG are mixed: ss GAGAAAGAGAAAAGGAAAGdTdT (SEQ ID NO: 15), as SEQ ID NO: 16 (sense GAGAAAGAGAAAAGGAAAGNN; antisense CUUUCCUUUUCUCUUUCUCNN; dTdT overhangs; modified_base (20)..(21) n = thymidine; (20)..(21) n is a, c, g, t or u) [reference compound]
Tm for duplex [1]: 66.13 ^+C

siAAG: duplex RNA: ss AAGAAGAAGAAGAAGAAGAdTdT (SEQ ID NO: 2), as UCUUCUUCUUCUUCUUCUUdTdT (SEQ ID NO: 10) (sense AAGAAGAAGAAGAAGAAGANN; antisense UCUUCUUCUUCUUCUUCUUNN; dTdT overhangs; modified_base (20)..(21) n = thymidine; (20)..(21) n is a, c, g, t or u)
Tm for duplex [1]: 64.67 ^+C

Nc1ccccc1NC(=O)CCCCCCC(=O)Nc1ccccc1 [BML210]
FXN protein levels ([2]; 5 μM, averaged quadruplicate experiments (FIG. 2C)): did not reveal a significant increase | Acetylation of histone H3 and H4 and FXN mRNA and protein [6]: increased acetylation of histone H3 and H4 leading to upregulation of FXN mRNA and protein | FXN mRNA levels [7]: did not reveal a significant increase

PS-LNA13: LNA with PS backbone complementary to antisense RNA, AGAAGAAGAAGAAGAAGAA (SEQ ID NO: 35) (lA*dG*lA*lA*dG*lA*lA*dG*lA*lA*dG*lA*lA*dG*lA*lA*dG*lA*lA)
FXN protein expression, LNAs [2]: inert

siAAG5mm: similar to siAAG but has five mismatches: ss AACAATAATACGCAGAAGAdTdT (SEQ ID NO: 17), as SEQ ID NO: 18 (sense AACAATAATACGCAGAAGANN; antisense UCUUCUGCGUAUUAUUGUUNN; dTdT overhangs; modified_base (20)..(21) n = thymidine; (20)..(21) n is a, c, g, t or u) [reference compound]
Tm for duplex [1]: 63.24 ^+C

siAGA: duplex RNA: ss AGAAGAAGAAGAAGAAGAAdTdT (SEQ ID NO: 11), as UUCUUCUUCUUCUUCUUCUdTdT (SEQ ID NO: 12) (sense AGAAGAAGAAGAAGAAGAANN; antisense UUCUUCUUCUUCUUCUUCUNN; dTdT overhangs; modified_base (20)..(21) n = thymidine; (20)..(21) n is a, c, g, t or u)
Tm for duplex [1]: 64.3 ^+C

PS-LNA11: LNA with PS backbone complementary to antisense RNA, GAAGAAGAAGAAGAAGAAG (SEQ ID NO: 33) (dG*lA*lA*dG*lA*lA*dG*lA*lA*dG*lA*lA*dG*lA*lA*dG*lA*lA*dG)
FXN protein expression, LNAs [2]: inert
